Assay results reported in patent publication US12364682B2, “Use of tegaserod in preparation of anti-tumor drug” (Qingdao Haiji Biomedicine Co., Ltd., priority 2019, dated 2025).
Counter-ions that a name gives are not always drawn.

Legend:
[1] = tested on: STAT3; assay: STAT3-dependent luciferase reporter gene test; format: cell-based; conditions: Homo sapiens; SKA cells (A549 with STAT3-luciferase reporter gene), 24 h; read-out: IC50 of inhibitory effect on STAT3 (luciferase reporter)
Procedure: HeLa and SKA cells (A549 cells constructed with the STAT3-luciferase reporter gene) were cultivated in a DMEM medium, and DU145, A549, DLD1, H460, and MC38 were cultivated in an RPMI 1640 medium. For routine cultivation, 10% fetal bovine serum (FBS), 100 IU/ml penicillin, and […] streptomycin were added to a medium. All cells were cultivated at 37° C. and 5% CO2.
SKA cells were inoculated into a white 96-well plate at a density of 1×10^4/well, and cultivated overnight at 37° C. and 5% CO2. A drug to be tested was added at a concentration to be tested to act on the cells for 24 h. The luciferase activity was determined on a SpectraMax®L microplate reader using a luciferase kit (purchased from Promega®).

[2] = tested on: STAT3 Tyr705; assay: Western blotting of constitutive STAT3 activation in DU145 cells; format: cell-based, human; conditions: constitutively activated STAT3, 2 h
Procedure: (§1) The cells were harvested and lysed with an RIPA buffer, a resulting lysate was subjected to sodium dodecyl sulfate-polyacrylamide gel electrophoresis (SDS-PAGE), and a resulting protein was transferred to a nitrocellulose (NC) membrane (purchased from GE Healthcare®). A primary antibody was added to bind the protein to be tested on the membrane, then a horseradish peroxidase (HRP)-conjugated secondary antibody (purchased from Absin) was added for incubation, and finally a formed immunocomplex was detected with an Immobilon™ Western chemiluminescent HRP substrate (Millipore®) and photographed with a Tanon® 5200 imaging system.
(§2) Different concentrations of Tegaserod were added to normally-cultured cells to act on the cells for 2 h, a cell protein lysate was collected for western blotting assay, and an activation status of STAT3 was observed through a phosphorylation status at an STAT3 Tyr705 site.

[3] = tested on: STAT3 Tyr705; assay: Western blotting of constitutive STAT3 activation in A549 cells; format: cell-based; conditions: constitutively activated STAT3, 2 h
Procedure: as §1, §2

[4] = tested on: STAT3 (Y705); assay: Western blotting of IL-6-induced STAT3 activation in HeLa cells; format: cell-based; conditions: 2 h drug, then 5 ng/ml IL-6 for 10 min
Procedure: as §1
IL-6 was the main cytokine to activate STAT3 signaling. Hela cells were first treated with different concentrations of Tegaserod for 2 h, then stimulated with 5 ng/ml IL-6 for 10 min before harvested. Total protein was extracted, and the phosphorylation of STAT3 (Y705) was detected through western blotting.

[5] = biological target: T1, JAK1 Tyr1022/1023 (Homo sapiens, UniProt P23458); assay: Western blotting of JAK1 phosphorylation in DU145 cells; format: cell-based
T1 construct: endogenous in cells; host or cells: DU145
T1 sequence (P23458 whole entry): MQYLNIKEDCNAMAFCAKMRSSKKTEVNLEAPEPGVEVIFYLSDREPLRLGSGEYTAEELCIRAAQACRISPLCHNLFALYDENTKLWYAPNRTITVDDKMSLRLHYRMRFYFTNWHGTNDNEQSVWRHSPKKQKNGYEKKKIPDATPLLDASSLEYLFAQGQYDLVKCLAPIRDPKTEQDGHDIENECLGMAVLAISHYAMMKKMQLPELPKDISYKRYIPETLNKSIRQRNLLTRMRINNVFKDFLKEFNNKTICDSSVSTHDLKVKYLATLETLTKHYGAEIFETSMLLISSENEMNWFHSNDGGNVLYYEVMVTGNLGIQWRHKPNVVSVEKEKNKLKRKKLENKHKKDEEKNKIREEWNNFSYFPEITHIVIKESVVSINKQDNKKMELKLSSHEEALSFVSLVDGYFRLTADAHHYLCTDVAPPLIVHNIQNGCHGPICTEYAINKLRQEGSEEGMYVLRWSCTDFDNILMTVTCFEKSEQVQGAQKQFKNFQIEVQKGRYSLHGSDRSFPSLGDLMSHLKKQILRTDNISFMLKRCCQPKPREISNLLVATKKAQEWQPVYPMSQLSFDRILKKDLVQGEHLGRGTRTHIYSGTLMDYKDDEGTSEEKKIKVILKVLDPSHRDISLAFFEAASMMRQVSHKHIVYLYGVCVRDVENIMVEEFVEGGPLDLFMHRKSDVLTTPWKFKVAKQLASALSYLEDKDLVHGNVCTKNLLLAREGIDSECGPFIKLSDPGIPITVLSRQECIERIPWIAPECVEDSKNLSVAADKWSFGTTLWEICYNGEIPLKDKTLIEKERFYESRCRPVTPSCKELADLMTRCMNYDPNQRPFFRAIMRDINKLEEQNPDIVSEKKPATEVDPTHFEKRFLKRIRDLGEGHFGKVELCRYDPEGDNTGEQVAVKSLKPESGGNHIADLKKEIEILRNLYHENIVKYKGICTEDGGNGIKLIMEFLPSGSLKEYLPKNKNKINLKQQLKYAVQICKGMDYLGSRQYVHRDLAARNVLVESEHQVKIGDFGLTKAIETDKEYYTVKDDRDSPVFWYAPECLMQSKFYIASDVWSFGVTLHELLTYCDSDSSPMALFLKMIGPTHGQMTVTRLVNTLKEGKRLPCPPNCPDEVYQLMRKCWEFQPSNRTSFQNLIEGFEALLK
Procedure: as §1
(§3) STAT3 is usually JAK-kinase-phosphorylated and activated by the autophosphorylated JAK kinase upstream thereof.

[6] = biological target: T2, JAK2 Tyr1007/1008 (Homo sapiens, UniProt O60674); assay: Western blotting of JAK2 phosphorylation in DU145 cells; format: cell-based; conditions: 7.5 μM, 2 h
T2 construct: endogenous in cells; host or cells: DU145
T2 sequence (O60674 whole entry): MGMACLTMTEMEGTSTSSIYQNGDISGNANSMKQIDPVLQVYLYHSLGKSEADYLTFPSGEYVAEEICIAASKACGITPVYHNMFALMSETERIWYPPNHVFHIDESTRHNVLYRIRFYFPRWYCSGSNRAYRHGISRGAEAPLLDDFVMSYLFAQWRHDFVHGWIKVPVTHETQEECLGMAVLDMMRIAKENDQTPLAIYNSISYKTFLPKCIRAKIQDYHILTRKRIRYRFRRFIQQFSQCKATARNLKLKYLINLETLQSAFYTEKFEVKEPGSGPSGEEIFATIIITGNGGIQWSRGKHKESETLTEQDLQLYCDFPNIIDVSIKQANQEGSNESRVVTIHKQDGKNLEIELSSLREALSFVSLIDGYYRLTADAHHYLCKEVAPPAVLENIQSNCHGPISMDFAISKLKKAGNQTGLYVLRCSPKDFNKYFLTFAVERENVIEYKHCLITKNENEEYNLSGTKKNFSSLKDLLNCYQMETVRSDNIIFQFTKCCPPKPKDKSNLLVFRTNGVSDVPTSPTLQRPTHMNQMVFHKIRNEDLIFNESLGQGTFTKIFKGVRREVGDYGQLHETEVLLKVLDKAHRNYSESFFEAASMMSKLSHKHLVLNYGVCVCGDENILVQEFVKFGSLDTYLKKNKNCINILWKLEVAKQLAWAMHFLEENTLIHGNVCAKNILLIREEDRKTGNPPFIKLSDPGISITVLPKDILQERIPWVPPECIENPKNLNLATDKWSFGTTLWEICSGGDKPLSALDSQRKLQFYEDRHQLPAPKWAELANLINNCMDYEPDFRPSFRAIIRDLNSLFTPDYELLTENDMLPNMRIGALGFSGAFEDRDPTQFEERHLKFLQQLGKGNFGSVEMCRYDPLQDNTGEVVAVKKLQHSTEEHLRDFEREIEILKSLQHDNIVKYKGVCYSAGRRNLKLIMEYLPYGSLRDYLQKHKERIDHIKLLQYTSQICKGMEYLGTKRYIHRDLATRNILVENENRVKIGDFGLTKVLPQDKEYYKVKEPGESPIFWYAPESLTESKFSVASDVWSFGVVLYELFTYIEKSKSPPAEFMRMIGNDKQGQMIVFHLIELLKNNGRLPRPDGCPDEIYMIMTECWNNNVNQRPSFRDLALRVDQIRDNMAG
Procedure: as §1, §3

[7] = biological target: T3, TYK2 Tyr1054/1055 (Homo sapiens, UniProt P29597); assay: Western blotting of TYK2 phosphorylation in DU145 cells; format: cell-based; conditions: high concentration 15 μM, 2 h
T3 construct: endogenous in cells; host or cells: DU145
T3 sequence (P29597 whole entry): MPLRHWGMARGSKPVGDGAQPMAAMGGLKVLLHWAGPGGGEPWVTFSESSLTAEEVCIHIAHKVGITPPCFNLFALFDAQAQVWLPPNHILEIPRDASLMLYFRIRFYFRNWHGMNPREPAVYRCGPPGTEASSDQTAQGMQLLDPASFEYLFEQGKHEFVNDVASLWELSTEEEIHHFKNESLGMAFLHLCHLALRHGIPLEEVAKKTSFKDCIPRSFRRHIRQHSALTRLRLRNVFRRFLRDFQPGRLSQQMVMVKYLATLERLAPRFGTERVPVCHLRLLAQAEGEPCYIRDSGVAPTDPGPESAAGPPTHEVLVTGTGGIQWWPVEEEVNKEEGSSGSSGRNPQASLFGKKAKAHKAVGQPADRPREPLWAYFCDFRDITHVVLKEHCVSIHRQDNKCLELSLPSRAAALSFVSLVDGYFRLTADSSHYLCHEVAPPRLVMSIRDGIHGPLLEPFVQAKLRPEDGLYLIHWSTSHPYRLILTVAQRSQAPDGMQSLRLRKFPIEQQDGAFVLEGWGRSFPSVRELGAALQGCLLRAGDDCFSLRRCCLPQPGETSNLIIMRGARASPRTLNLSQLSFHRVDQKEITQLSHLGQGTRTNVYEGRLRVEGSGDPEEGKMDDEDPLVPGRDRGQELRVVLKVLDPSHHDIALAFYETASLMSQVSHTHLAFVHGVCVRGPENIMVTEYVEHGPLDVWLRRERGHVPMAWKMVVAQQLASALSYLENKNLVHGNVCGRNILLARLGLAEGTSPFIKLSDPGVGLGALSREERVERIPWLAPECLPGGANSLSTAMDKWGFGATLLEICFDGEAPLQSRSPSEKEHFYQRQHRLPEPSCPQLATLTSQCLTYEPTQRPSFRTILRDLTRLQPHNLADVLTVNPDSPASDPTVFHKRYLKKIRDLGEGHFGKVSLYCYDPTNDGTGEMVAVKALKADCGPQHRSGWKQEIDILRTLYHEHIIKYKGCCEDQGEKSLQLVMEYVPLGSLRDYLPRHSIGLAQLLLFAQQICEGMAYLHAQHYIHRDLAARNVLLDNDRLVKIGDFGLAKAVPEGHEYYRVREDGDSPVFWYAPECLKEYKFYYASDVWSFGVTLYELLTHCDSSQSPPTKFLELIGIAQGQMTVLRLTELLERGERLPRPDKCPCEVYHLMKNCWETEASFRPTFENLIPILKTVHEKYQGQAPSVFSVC
Procedure: as §1, §3

[8] = tested on: prostate cancer DU145 cells; assay: Cell viability assay, DU145; format: cell-based; conditions: Homo sapiens, DU-145, 72 h, read-out: growth inhibition IC50
Procedure: (§4) Cells were inoculated into a 96-well plate at a density of 3,000 cells/well. After the cells were cultivated for 18 h, different concentrations of a drug to be tested were added to act on the cells. 72 h after the drug to be tested was added, 10 μl of resazurin (1 mg/ml) was added to each well, the plate was further incubated for 3 h, and then a fluorescence value at 595 nm (excitation wavelength at 544 nm) was determined on a SpectraMax®i3 multifunctional microplate reader (purchased from Molecular Device®)
(§5) After cells were treated with Tegaserod for 72 h, the cell viability was determined to reflect the inhibitory effect of the drug on cell growth.

[9] = tested on: lung cancer H460 cells; assay: Cell viability assay, H460; format: cell-based; conditions: Homo sapiens, NCI-H460, 72 h, read-out: growth inhibition IC50
Procedure: as §4, §5

[10] = tested on: lung cancer A549 cells; assay: Cell viability assay, A549; format: cell-based; conditions: Homo sapiens, 72 h, read-out: growth inhibition IC50
Procedure: as §4, §5

[11] = tested on: DLD1 colon cancer cells; assay: Cell viability assay, DLD1; format: cell-based; conditions: Homo sapiens, DLD-1, 72 h, read-out: growth inhibition IC50
Procedure: as §4, §5

[12] = tested on: NSCLC A549 transplanted tumors; assay: A549 transplanted tumor nude mouse model; format: in vivo, nude mice
Procedure: (§6) Female NRMI nu/nu athymic nude mice (SPF grade, 6 weeks old, with a weight of 17 g to 20 g) were purchased from GemPharmatech®, and raised in a constant-temperature and constant-humidity environment according to standard requirements, where a 12 h light-dark cycle was adopted. The animal experiment was approved by the Laboratory Animal Committee of Ocean University of China and complied with the “Guide for Care and Use of Laboratory Animals” published by the National Institutes of Health (NIH Publication No. 85-23, revised in 1996).
(§7) Nude mice were subcutaneously injected with an A549 cell suspension (female mice) or a DU145 matrigel cell suspension (male mice). After palpable solid tumors were formed, constructed model mice were randomly divided into groups, each with 7 to 10 mice. Administration treatment was conducted according to the experimental grouping. Throughout the experiment, a body weight was measured regularly. A tumor volume was calculated as follows: tumor volume=0.5×length×width×width.

[13] = tested on: prostate cancer DU145 transplanted tumors; assay: DU145 transplanted tumor nude mouse model; format: in vivo, nude mice
Procedure: as §6, §7

[14] = tested on: CRC MC38 transplanted tumors; assay: CRC MC38 syngeneic tumor model; format: in vivo; conditions: immune-sound mice
From the text: (§8) Some parts in nude mice had acquired immune cell deficiency and an imperfect immune system, and thus the anti-tumor effect and immunomodulatory effect of Tegaserod were further tested in immune-sound mice.

[15] = Body weight and toxicity observation in tumor-bearing mice; format: in vivo
Procedure: as §7

[16] = tested on: immune cells in peripheral blood; assay: Blood cell analysis of peripheral blood; format: in vivo; conditions: tumor-bearing mice, after administration
Procedure: After the tumor-bearing mice were sacrificed by CO2, blood was collected from the heart and placed into an EDTA anticoagulation tube, and the blood cell component test was conducted using an IDEXX ProCyte Dx automatic blood cell analyzer.
In order to verify this hypothesis, the composition change of immune cells in peripheral blood after the administration of Tegaserod was first detected.

[17] = tested on: immune cells in DU145 transplanted tumors; assay: FCM analysis of immune cells in DU145 transplanted tumors; format: in vivo; conditions: DU145 transplanted tumors in nude mice
Procedure: (§9) At the end of the experiment, the mice were sacrificed by C02, a proper amount of tumor tissue was collected and placed in a dissociation tube with a mouse tumor dissociation reagent (MC38 transplanted tumor) or human tumor dissociation reagent (DU145 transplanted tumor), and a tissue dissociator (Miltenyi) was used for dissociation. Separated single cells were subjected to RBC lysis and dead cell staining, obtained cells were incubated with a blocking solution at 4° C., a corresponding antibody was added, and analysis was conducted on a FACSAriaIII cell sorter.
Furthermore, the composition and proportion of immune cells in DU145 transplanted tumors in nude mice were tested through FCM.

[18] = tested on: mouse stromal cells of DU145 transplanted tumors; assay: Transcriptome sequencing of DU145 transplanted tumors; format: in vivo, nude mice; conditions: mouse-derived cells in DU145 transplanted tumors, mRNA sequencing
Procedure: An appropriate amount of tumor tissue was collected and quick-frozen with liquid nitrogen, and eukaryotic mRNA sequencing was conducted by Majorbio. Based on the Illumina® Novaseq 6000™ sequencing platform, all mRNAs transcribed from specific eukaryotic tissues or cells in a specified period were sequenced. In the sequencing experiment, the Illumina Truseq™ RNA sample prep kit method was used to build a library. Raw data were used for quality control, sequence alignment, transcript assembly, function annotation, and expression analysis.
In order to further explore the immunomodulatory effect of Tegaserod in an anti-tumor process, the transcriptome sequencing technology was used to conduct mRNA sequencing for DU145 transplanted tumors in nude mice, and sequencing results were aligned to the mouse reference genome to obtain the overall mRNA expression of mouse-derived cells in DU145 transplanted tumors in nude mice.

[19] = tested on: immune cells in MC38 transplanted tumors; assay: FCM analysis of immune cells in MC38 tumors; format: in vivo, mice
Procedure: as §9, §8

[20] = tested on: phosphorylated STAT3; assay: Immunohistochemistry of phosphorylated STAT3 in DU145 transplanted tumors; format: in vivo, nude mice; conditions: oral administration
Procedure: (§10) Paraffin sections were deparaffinized with xylene, washed with ethanol of various grades, subjected to antigen retrieval, blocked with a blocking solution in a 37° C. incubator, then treated with a primary antibody and a secondary antibody, stained with a DAB staining solution, treated with hematoxylin, a differentiation solution, an ammonia solution, ethanol of various grades, and xylene, and sealed with a neutral resin.
In addition, the human prostate cancer cell line DU145 with constitutive STAT3 activation was selected, and the effect of Tegaserod on the growth of transplanted tumors of the human prostate cancer cell line in nude mice was also tested.

[21] = tested on: cell proliferation marker Ki67; assay: Immunohistochemistry of Ki67 in DU145 transplanted tumors; format: in vivo, nude mice; conditions: oral 1.25 mg/kg once every two days
Procedure: as §10

[H]/N=C(/NCCCCC)N/N=C/c1c[nH]c2ccc(OC)cc12 [Tegaserod maleate]
IC50 [1]: 5.06 µM

CCCCCNC(=N)N/N=C/c1c[nH]c2ccc(OC)cc12 [Tegaserod, 2-[(5-methoxy-1H-indol-3-yl)methylene]-N-pentylcarbazide]
inhibition of STAT3 activation (Tyr705 phosphorylation) [2]: could inhibit the activation of STAT3 in a dosage-dependent manner
inhibition of STAT3 activation (Tyr705 phosphorylation) [3]: could inhibit the activation of STAT3 in a dosage-dependent manner
inhibition of IL-6-induced STAT3 activation (Y705 phosphorylation) [4]: inhibited the activation of STAT3 induced by IL-6 in a dosage-dependent manner
inhibition of phosphorylation at JAK1 Tyr1022/1023 ([5]; 7.5 μM, 2 h): could inhibit the phosphorylation
selectivity within the JAK kinase family ([5]; JAK1 and JAK2 versus TYK2): higher affinity to JAK1 and JAK2 than to TYK2
inhibition of phosphorylation at JAK2 Tyr1007/1008 [6]: could inhibit the phosphorylation
inhibition of phosphorylation at TYK2 Tyr1054/1055 [7]: could also inhibit the phosphorylation
IC50 [8]: 2.5 µM
IC50 [9]: 3.1 µM
IC50 [10]: 5.7 µM
IC50 [11]: 8.7 µM
anti-tumor effect relative to gefitinib ([12]; 5 mg/kg i.p. versus 100 mg/kg gefitinib p.o., A549 nude mice): comparable to that of 100 mg/kg gefitinib (p.o.)
growth of A549 transplanted tumors ([12]; 5 mg/kg i.p., nude mice, versus control group): could effectively inhibit the growth of A549 tumor cells
dependence of tumor inhibition rate on dosage ([12]; A549 transplanted tumor nude mouse model): no dependence on a Tegaserod dosage
growth of A549 transplanted tumors (tumor weight and tumor volume) ([12]; oral administration, nude mice): could inhibit the growth of A549 transplanted tumors in nude mice
tumor inhibition ability at reduced administration frequency ([13]; DU145 nude mice, oral, once every two days): exhibited a stronger tumor inhibition ability
dependence of tumor inhibition rate on dosage ([13]; DU145 transplanted tumor nude mouse model): no dependence on a Tegaserod dosage
growth of DU145 transplanted tumors ([13]; oral administration, nude mice): could effectively inhibit the growth of DU145 transplanted tumors in nude mice
growth of CRC MC38 transplanted tumors [14]: could effectively inhibit the growth of CRC MC38 transplanted tumors
organ damage after anatomy ([15]; A549 nude mouse model, i.p. administration, experimental endpoint): no obvious organ damage was observed
body weight ([15]; A549 nude mouse model, i.p. administration, throughout the experiment): did not change significantly
body weight ([15]; A549 nude mouse model, oral administration): did not lose weight
drug toxicity (body weight) ([15]; DU145 nude mouse model, low-dosage, low-frequency oral administration): no obvious drug toxicity
drug toxicity ([15]; DU145 nude mouse model, oral administration): without obvious drug toxicity
drug toxicity ([15]; MC38 model, immune-sound mice): without obvious drug toxicity
total WBC count, neutrophils, lymphocytes, and platelets in the peripheral blood [16]: could stimulate the increase
proportion of immune cells (CD45+; CD11b+Ly6G+, CD11b+Ly6C+, CD335+) in tumors [17]: could increase the proportion of immune cells (CD45+) in tumors
genes of cytokine-cytokine receptor interaction and antigen processing and presentation (KEGG analysis) [18]: significantly up-regulated
infiltration of immune cells (CD45+) inside tumors [19]: promoted the infiltration of immune cells (CD45+) inside tumors
phosphorylation level of STAT3 in tumors (immunohistochemistry) [20]: could effectively inhibit the phosphorylation level of STAT3
tumor proliferation ability (Ki67 immunohistochemistry) [21]: decreased proliferation ability

COc1cc2ncnc(Nc3ccc(F)c(Cl)c3)c2cc1OCCCN1CCOCC1 [gefitinib]
total WBC count, neutrophils, lymphocytes, and platelets in the peripheral blood [16]: stimulate the increase
proportion of immune cells (CD45+; CD11b+Ly6G+, CD11b+Ly6C+, CD335+) in tumors [17]: also exhibited a similar immunomodulatory effect
